The target of the assay is HIV-1 recombinant protease (Human immunodeficiency virus type 1 group M subtype B, UniProt P04585). The assay can be described thus: biochemical.

Molecules are shown by their SMILES.

Procedure: Inhibitory activity was measured in accordance with the method described by A. Tossi et al. (Eur. J. Biochem., 2000, 267, 1715) using an HIV-1 recombinant protease supplied by Bioczech (Prague, CZ) and the fluorogenic substrate Abz-Thr-Ile-Nle-Phe(p-NO2)-Gln-Arg-NH2 (abbreviated hereinafter as Abz-NF*-6) supplied by Bachem (Bubendorf, CH). Specifically, 189 μL of a 30 μM solution of Abz-NF*-6 in a 100 mM MES-NaOH buffer (pH 5.5) containing NaCl (400 mM), EDTA (1 mM), DTT (1 mM) and BSA (1 mg/mL) are incubated at 25° C. in a cuvette placed directly in the spectrofluorimeter, irradiated at 325 mn and checking that there is no increase of emission at 420 nm due to the spontaneous hydrolysis of the substrate. After 1.5 minutes 11 μL of a standard solution of HIV-PR (0.4 mg/mL) in the same buffer are added and the variation in fluorescence, due to catalysed hydrolysis of the Abz-NF*-6 substrate, is recorded for 1 minute. 2 μL of the inhibitor solution in DMSO or MES buffer are then added and the variation in fluorescence over time due to hydrolysis of the Abz-NF*-6 substrate in the presence of the specific inhibitor is recorded.

On to `CCC(C)C(NC(=O)C(NC(C)=O)C(C)C)C(=O)N1CCC[C@H]1[C@H](O)[C@@H](O)[C@H](Cc1ccccc1)NC(=O)C(CC(N)=O)NC(=O)C(CC(C)C)NC(=O)C(CO)NC(C)=O` (stereo partly drawn) [(21), NH-Ac-Ser-Leu-Asn-Phe-[φ]-Pro-Ile-Val-NH-Ac], for which the IC50 (in general, the concentration at which inhibition is half-maximal) is 0.61 nM. To `CC(=O)N[C@@H](Cc1c[nH]c2ccccc12)C(=O)N[C@H](C(=O)N[C@@H](Cc1ccccc1)[C@H](O)[C@@H](O)[C@@H]1CCCN1C(=O)[C@@H](NC(=O)[C@H](Cc1c[nH]c2ccccc12)NC(C)=O)C(C)C)C(C)C` [(22), NH-Ac-Trp-Val-Phe-[φ]-Pro-Val-Trp-NH-Ac] belongs 0.06 nM; to `Cc1cccc(C)c1OCC(=O)N[C@@H](Cc1ccccc1)[C@H](O)[C@@H](O)[C@@H]1CCCN1C(=O)COc1c(C)cccc1C` [(23), DmPoa-Phe-[φ]-Pro-DmPoa], 9.6 nM. Turning to `CC(=O)NC(Cc1c[nH]c2ccccc12)C(=O)NC(C(=O)N1CCC[C@H]1[C@H](O)[C@@H](O)[C@H](Cc1ccccc1)NC(=O)COc1c(C)cccc1C)C(C)C` (stereo partly drawn) [(24), DmPoa-Phe-[φ]-Pro-Val-Trp-NH-Ac], the IC50 was found to be 75.3 nM.

For the compound `Cc1cccc(C)c1OCC(=O)N[C@@H](Cc1ccccc1)[C@H](O)[C@@H](O)[C@@H]1CCCN1C(=O)COc1ccccc1` [(25), DmPoa-Phe-[φ]-Pro-Poa], the IC50 came to 84.7 nM.

The values are drawn from patent US7691818B2, “Peptidomimetic inhibitors of retroviral proteases and their use as antivirals” (Universita' Degli Studi Di Treiste, priority 2004, dated 2010).
